Measured values: ChEMBL document CHEMBL4364278, “2,7-naphthyridinone-based MET kinase inhibitors: A promising novel scaffold for antitumor drug development” (Eur J Med Chem, 2019)
One block for each molecule: values may come before it.

Assays:
HT-29 [1] = experiment: Antitumour activity against human HT-29 cells xenografted in athymic nude mouse assessed as tumor growth inhibition at 25 mg/kg, po administrated for 3 weeks by caliper method relative to control; type: functional; settings: HT-29, po, 504 h, read-out: TGI
[2] = target: T1, Hepatocyte growth factor receptor (Homo sapiens, UniProt P08581)
T1 sequence (P08581 whole entry): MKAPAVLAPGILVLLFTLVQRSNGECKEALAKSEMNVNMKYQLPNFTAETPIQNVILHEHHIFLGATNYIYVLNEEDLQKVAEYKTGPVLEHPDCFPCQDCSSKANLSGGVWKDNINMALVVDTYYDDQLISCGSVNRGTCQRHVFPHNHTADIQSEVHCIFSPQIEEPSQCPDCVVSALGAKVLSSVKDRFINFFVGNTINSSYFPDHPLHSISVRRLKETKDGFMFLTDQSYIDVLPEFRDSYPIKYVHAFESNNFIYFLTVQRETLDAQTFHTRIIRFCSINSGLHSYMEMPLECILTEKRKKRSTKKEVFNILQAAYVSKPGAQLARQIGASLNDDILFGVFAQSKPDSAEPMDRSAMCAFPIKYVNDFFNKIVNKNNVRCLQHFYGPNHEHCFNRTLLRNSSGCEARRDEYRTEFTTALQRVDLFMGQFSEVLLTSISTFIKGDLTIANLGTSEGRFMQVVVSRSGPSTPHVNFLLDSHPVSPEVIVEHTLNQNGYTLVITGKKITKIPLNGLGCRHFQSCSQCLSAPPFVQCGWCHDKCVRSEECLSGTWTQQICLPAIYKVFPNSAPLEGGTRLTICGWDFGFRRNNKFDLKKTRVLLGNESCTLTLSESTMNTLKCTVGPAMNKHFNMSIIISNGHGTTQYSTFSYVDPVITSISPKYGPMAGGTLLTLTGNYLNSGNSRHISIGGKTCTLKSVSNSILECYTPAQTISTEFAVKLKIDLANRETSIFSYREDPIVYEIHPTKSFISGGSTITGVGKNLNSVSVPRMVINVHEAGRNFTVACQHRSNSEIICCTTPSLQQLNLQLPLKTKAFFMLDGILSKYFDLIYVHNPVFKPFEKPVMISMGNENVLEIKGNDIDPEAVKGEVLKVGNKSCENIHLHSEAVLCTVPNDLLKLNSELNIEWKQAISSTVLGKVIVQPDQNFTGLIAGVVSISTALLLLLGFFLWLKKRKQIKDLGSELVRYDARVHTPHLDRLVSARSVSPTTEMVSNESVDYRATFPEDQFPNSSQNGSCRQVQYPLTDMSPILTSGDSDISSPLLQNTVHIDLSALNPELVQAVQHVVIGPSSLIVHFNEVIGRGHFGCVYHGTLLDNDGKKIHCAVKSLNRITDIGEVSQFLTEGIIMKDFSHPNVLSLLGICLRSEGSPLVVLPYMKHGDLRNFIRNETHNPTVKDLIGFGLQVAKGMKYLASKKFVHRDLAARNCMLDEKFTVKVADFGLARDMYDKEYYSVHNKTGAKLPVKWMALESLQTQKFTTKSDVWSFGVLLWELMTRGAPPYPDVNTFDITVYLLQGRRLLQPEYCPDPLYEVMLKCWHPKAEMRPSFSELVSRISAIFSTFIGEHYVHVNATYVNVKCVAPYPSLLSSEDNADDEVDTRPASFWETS
Description: Inhibition of HGF-induced cMET autophosphorylation in human MKN45 cells preincubated for 1 hr followed by HGF addition and measured after 10 mins by ELISA

[3] = target: Vascular endothelial growth factor receptor 2 (Homo sapiens, UniProt P35968)
Description: Inhibition of recombinant human His-tagged VEGFR2 cytoplasmic domain expressed in baculovirus expression system using biotin as substrate preincubated for 5 mins followed by substrate addition and measured after 30 to 60 mins by HTRF assay

[4] = target: T1, Hepatocyte growth factor receptor; remark: listed apart in the source
Description: Inhibition of human recombinant His-tagged cMET cytoplasmic domain expressed in baculovirus expression system using biotin as substrate preincubated for 5 mins followed by substrate addition and measured after 30 to 60 mins by HTRF assay

U-87 MG [5] = experiment: animal or person; settings: Mus musculus, po, 504 h, read-out: TGI
Description: Antitumour activity against human U87MG cells xenografted in athymic nude mouse assessed as tumor growth inhibition at 25 mg/kg, po administrated for 3 weeks by caliper method relative to control

[6] = Tmax in rat at 10 mg/kg, po; type: ADME, organism-based; settings: in vivo
[7] = Half life in rat at 10 mg/kg, po; type: ADME, organism-based; settings: in vivo
[8] = AUC (0 to infinity) in rat at 10 mg/kg, po; type: ADME, organism-based; parameters: dose 10 mg/kg, route oral, time infinity; settings: in vivo
[9] = Oral bioavailability in rat at 10 mg/kg; type: ADME, organism-based; settings: in vivo
[10] = Half life in rat at 2.5 mg/kg, iv; type: ADME, organism-based; settings: in vivo
[11] = Cmax in rat at 10 mg/kg, po; type: ADME, organism-based; parameters: dose 10 mg/kg, route oral; settings: in vivo
[12] = Volume of distribution in rat at 2.5 mg/kg, iv; type: ADME, organism-based; settings: in vivo
[13] = AUC (0 to infinity) in rat at 2.5 mg/kg, iv; type: ADME, organism-based; parameters: dose 2.5 mg/kg, route intravenous, time infinity; settings: in vivo
[14] = Clearance in rat at 2.5 mg/kg, iv; type: ADME, organism-based; settings: in vivo
[15] = target: Proto-oncogene tyrosine-protein kinase Src (Homo sapiens) (UniProt P12931); experiment: Inhibition of SRC (1 to 530 residues)(unknown origin) at 1 uM relative to control
Sequence of Proto-oncogene tyrosine-protein kinase Src (Homo sapiens) (P12931 2-536 limits assumed): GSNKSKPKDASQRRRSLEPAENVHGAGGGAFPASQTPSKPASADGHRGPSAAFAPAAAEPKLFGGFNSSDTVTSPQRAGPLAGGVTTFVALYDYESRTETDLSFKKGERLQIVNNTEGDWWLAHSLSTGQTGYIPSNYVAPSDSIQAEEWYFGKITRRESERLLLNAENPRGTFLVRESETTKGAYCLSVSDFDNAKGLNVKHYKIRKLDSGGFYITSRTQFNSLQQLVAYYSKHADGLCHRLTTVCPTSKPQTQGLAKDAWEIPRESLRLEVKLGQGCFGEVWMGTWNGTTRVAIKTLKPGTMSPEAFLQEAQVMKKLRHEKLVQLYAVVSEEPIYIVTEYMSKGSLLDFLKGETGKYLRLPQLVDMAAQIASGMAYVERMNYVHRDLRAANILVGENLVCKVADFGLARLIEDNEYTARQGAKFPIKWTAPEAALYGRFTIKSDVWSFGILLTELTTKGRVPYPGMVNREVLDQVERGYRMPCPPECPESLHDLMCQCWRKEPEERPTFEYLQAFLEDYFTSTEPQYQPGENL

[16] = target: Tyrosine-protein kinase Fes/Fps (Homo sapiens) (UniProt P07332); experiment: Inhibition of FES (unknown origin) at 1 uM relative to control
[17] = target: Tyrosine-protein kinase receptor UFO (Homo sapiens) (UniProt P30530); experiment: Inhibition of AXL (unknown origin) at 1 uM relative to control
U-87 MG [18] = experiment: Antitumour activity against human U87MG cells xenografted in athymic nude mouse assessed as tumor growth inhibition at 12.5 mg/kg, po administrated for 3 weeks by caliper method relative to control; type: functional, U-87MG ATCC; settings: 504 h, read-out: TGI
U-87 MG [19] = experiment: Antitumour activity against human U87MG cells xenografted in athymic nude mouse assessed as tumor growth inhibition at 50 mg/kg, po administrated for 3 weeks by caliper method relative to control; type: functional, U-87MG ATCC; settings: 504 h, read-out: TGI
[20] = target: Dual specificity tyrosine-phosphorylation-regulated kinase 2 (Homo sapiens) (UniProt Q92630); experiment: Inhibition of DYRK2 (unknown origin) at 1 uM relative to control
HT-29 [21] = experiment: Antitumour activity against human HT-29 cells xenografted in athymic nude mouse assessed as tumor growth inhibition at 50 mg/kg, po administrated for 3 weeks by caliper method relative to control; type: functional; settings: HT-29, po, 504 h, read-out: TGI
[22] = target: High affinity nerve growth factor receptor (Homo sapiens) (UniProt P04629); experiment: Inhibition of TRKA (unknown origin) at 1 uM relative to control
[23] = target: Vascular endothelial growth factor receptor 1 (Homo sapiens) (UniProt P17948); experiment: Inhibition of FLT1 (unknown origin) at 1 uM relative to control
Sequence of Vascular endothelial growth factor receptor 1 (Homo sapiens) (P17948 whole entry): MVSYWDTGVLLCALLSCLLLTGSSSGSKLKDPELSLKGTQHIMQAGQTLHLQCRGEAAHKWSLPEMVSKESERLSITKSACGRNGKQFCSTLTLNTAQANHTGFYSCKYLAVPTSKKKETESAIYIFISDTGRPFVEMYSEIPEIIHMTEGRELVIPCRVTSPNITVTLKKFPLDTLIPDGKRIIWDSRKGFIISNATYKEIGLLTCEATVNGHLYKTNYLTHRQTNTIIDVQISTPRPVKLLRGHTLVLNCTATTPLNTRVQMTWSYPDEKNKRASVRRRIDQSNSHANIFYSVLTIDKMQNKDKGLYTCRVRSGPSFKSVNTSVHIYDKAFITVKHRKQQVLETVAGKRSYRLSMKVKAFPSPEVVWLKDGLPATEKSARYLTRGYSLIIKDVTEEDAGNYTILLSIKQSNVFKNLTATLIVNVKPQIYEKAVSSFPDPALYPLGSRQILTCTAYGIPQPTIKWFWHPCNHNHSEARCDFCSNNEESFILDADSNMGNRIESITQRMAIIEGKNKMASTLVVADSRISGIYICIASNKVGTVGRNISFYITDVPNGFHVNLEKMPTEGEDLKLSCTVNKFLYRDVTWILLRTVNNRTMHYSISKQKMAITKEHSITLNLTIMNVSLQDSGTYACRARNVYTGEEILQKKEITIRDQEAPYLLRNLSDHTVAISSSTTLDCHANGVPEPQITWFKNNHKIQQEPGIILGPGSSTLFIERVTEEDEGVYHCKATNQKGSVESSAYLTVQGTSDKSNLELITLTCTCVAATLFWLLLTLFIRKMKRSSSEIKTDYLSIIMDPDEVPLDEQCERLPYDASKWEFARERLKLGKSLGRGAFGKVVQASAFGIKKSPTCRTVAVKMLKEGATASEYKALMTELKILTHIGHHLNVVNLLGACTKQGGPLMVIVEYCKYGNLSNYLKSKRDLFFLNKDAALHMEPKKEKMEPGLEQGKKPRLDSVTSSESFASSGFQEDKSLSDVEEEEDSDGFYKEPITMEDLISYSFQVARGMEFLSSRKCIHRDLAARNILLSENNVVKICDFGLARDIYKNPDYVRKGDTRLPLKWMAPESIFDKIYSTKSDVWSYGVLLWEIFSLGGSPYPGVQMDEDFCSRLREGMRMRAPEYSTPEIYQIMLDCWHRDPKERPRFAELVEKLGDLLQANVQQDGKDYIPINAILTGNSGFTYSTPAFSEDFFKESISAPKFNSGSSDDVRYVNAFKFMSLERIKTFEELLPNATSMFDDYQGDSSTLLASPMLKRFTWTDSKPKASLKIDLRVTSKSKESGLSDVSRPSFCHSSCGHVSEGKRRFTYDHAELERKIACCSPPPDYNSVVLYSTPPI

[24] = target: Macrophage-stimulating protein receptor (Homo sapiens) (UniProt Q04912); experiment: Inhibition of RON (unknown origin) at 1 uM relative to control
[25] = target: Tyrosine-protein kinase Lck (Homo sapiens) (UniProt P06239); experiment: Inhibition of LCK (unknown origin) at 1 uM relative to control
Sequence of Tyrosine-protein kinase Lck (Homo sapiens) (P06239 2-509 limits assumed): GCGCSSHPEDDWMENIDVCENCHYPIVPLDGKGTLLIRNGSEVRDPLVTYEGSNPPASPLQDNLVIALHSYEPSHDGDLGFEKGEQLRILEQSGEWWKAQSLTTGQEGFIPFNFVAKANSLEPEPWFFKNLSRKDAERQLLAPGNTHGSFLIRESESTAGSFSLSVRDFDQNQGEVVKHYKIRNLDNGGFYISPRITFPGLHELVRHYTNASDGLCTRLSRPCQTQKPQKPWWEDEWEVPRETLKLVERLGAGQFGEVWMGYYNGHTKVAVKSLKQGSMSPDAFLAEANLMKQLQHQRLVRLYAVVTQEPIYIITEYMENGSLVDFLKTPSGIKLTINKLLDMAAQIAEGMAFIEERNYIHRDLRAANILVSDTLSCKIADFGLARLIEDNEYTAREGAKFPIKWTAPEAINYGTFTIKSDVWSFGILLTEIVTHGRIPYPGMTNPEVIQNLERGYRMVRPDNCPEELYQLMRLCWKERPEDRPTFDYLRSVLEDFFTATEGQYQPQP

[26] = Fraction unbound in human plasma at 2 uM; type: ADME, cell-free
[27] = target: Tyrosine-protein kinase Lyn (Homo sapiens) (UniProt P07948); experiment: Inhibition of LYN (unknown origin) at 1 uM relative to control
[28] = Fraction unbound in rat plasma at 2 uM; type: ADME, cell-free
[29] = Fraction unbound in mouse plasma at 2 uM; type: ADME, cell-free
[30] = target: Proto-oncogene tyrosine-protein kinase ROS (Homo sapiens) (UniProt P08922); experiment: Inhibition of ROS (unknown origin) at 1 uM relative to control
[31] = target: BDNF/NT-3 growth factors receptor (Homo sapiens) (UniProt Q16620); experiment: Inhibition of TRKB (unknown origin) at 1 uM relative to control
[32] = target: Ephrin type-B receptor 4 (Homo sapiens) (UniProt P54760); experiment: Inhibition of EphB4 (unknown origin) at 1 uM relative to control
[33] = target: Tyrosine-protein kinase Fgr (Homo sapiens) (UniProt P09769); experiment: Inhibition of FGR (unknown origin) at 1 uM relative to control
[34] = target: Vascular endothelial growth factor receptor 3 (Homo sapiens) (UniProt P35916); experiment: Inhibition of FLT4 (unknown origin) at 1 uM relative to control
[35] = target: Macrophage colony-stimulating factor 1 receptor (Homo sapiens) (UniProt P07333); experiment: Inhibition of FMS (unknown origin) at 1 uM relative to control
[36] = target: Tyrosine-protein kinase receptor TYRO3 (Homo sapiens) (UniProt Q06418); experiment: Inhibition of RSE (unknown origin) at 1 uM relative to control
[37] = target: Aurora kinase B (Homo sapiens) (UniProt Q96GD4); experiment: Inhibition of AuroraB (unknown origin) at 1 uM relative to control
Sequence of Aurora kinase B (Homo sapiens) (Q96GD4 whole entry): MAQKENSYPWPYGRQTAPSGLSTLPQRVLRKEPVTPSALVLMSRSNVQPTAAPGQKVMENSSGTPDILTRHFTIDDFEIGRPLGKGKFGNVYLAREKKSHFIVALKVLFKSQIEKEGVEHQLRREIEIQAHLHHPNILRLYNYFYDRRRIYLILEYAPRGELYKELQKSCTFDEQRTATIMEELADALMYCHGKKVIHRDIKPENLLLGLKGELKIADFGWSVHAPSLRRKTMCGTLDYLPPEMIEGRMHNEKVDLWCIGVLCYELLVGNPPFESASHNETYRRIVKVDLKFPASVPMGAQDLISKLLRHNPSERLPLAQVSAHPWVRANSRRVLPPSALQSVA

[38] = target: Proto-oncogene tyrosine-protein kinase receptor Ret (Homo sapiens) (UniProt P07949); experiment: Inhibition of RET (unknown origin) at 1 uM relative to control
U-87 MG [39] = experiment: Antitumour activity against human U87MG cells xenografted in orally dosed athymic nude mouse assessed as inhibition in tumor growth administrated for 3 weeks by caliper method; type: functional; settings: for inhibition: U-87MG ATCC; for minimal effective dose: po, 504 h, read-out: MED
[40] = target: Discoidin domain-containing receptor 2 (Homo sapiens) (UniProt Q16832); experiment: Inhibition of DDR2 (unknown origin) at 1 uM relative to control
[41] = target: Tyrosine-protein kinase Mer (Homo sapiens) (UniProt Q12866); experiment: Inhibition of MER (unknown origin) at 1 uM relative to control
[42] = target: cAMP-dependent protein kinase catalytic subunit alpha (Homo sapiens) (UniProt P17612); experiment: Inhibition of PKA (unknown origin) at 1 uM relative to control
[43] = target: Ephrin type-A receptor 3 (Homo sapiens) (UniProt P29320); experiment: Inhibition of EphA3 (unknown origin) at 1 uM relative to control
Sequence of Ephrin type-A receptor 3 (Homo sapiens) (P29320 whole entry): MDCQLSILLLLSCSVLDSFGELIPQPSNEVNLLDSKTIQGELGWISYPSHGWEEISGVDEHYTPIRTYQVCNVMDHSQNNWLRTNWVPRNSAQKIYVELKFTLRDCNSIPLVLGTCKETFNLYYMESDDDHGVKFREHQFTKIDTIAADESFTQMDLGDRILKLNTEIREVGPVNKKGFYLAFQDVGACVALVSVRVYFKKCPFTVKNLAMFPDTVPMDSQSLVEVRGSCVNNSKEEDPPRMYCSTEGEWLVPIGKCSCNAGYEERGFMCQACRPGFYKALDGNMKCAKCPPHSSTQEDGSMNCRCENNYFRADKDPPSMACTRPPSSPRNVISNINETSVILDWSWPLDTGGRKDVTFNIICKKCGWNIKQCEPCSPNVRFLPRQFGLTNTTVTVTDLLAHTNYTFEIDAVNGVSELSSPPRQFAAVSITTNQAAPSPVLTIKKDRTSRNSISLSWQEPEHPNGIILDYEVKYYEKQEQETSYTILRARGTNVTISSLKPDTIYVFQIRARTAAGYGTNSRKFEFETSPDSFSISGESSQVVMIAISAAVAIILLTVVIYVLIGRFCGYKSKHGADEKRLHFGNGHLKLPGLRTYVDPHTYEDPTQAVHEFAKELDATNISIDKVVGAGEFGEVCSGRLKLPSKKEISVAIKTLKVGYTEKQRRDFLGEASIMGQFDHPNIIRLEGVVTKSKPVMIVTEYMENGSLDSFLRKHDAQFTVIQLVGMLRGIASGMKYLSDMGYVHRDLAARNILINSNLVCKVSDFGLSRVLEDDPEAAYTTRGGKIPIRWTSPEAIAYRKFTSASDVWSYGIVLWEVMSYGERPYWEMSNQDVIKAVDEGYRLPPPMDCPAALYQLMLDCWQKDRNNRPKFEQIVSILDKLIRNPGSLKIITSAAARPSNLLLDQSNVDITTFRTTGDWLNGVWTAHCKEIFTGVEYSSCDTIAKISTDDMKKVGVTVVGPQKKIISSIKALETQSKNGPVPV

U-87 MG [44] = experiment: Antitumour activity against human U87MG cells xenografted in athymic nude mouse assessed as tumor growth inhibition at 40 mg/kg, po administrated for 3 weeks by caliper method relative to control; settings: 504 h, read-out: TGI

SMILES: CCOc1ccn(-c2ccc(F)cc2)c(=O)c1C(=O)Nc1ccc(Oc2ccnc(N)c2Cl)c(F)c1 [BMS-777607]
- inhibition in vivo at 25 mg/kg (HT-29 [1]): 15%
- IC50 [2]: 46.6 nM
- IC50 [3]: 139 nM
- IC50 [4]: 7.6 nM
- inhibition in vivo at 25 mg/kg (U-87 MG [5]): 98%

SMILES: Nc1nccc(Oc2ccc(Nc3nccc4ccn(-c5ccc(F)cc5)c(=O)c34)cc2F)c1Cl
- inhibition [15]: 35%
- Tmax [6]: 1.2 h
- half-life [7]: 5.1 h
- inhibition [16]: 10%
- inhibition [17]: 97%
- inhibition in vivo at 12.5 mg/kg (U-87 MG [18]): 53%
- AUC(0-inf) [8]: 6700 ng·h/mL
- bioavailability [9]: 54%
- inhibition in vivo at 50 mg/kg (U-87 MG [19]): 114%
- inhibition [20]: -9%
- half-life [10]: 3.2 h
- inhibition in vivo at 50 mg/kg (HT-29 [21]): 95%
- Cmax [11]: 1600 ng/mL
- inhibition [22]: 99%
- inhibition [23]: 95%
- inhibition [24]: 100%
- inhibition [25]: 75%
- Fu [26]: < 0.5%
- inhibition [27]: 43%
- Fu [28]: < 0.5%
- Fu [29]: < 0.5%
- inhibition in vivo at 25 mg/kg (HT-29 [1]): 50%
- IC50 [2]: 69 nM
- inhibition [30]: 87%
- inhibition [31]: 100%
- inhibition [32]: 10%
- inhibition [33]: 62%
- inhibition [34]: 100%
- inhibition [35]: 88%
- Vd [12]: 3.6 L/kg
- inhibition [36]: 83%
- inhibition [37]: 44%
- AUC(0-inf) [13]: 3100 ng·h/mL
- inhibition [38]: 96%
- inhibition (U-87 MG [39]): Dose-dependent effect
- minimal effective dose (U-87 MG [39]): 12.5 mg/kg
- inhibition [40]: 98%
- inhibition [41]: 100%
- clearance [14]: 13.3 mL/min/kg
- inhibition [42]: 43%
- inhibition [43]: 38%
- inhibition in vivo at 25 mg/kg (U-87 MG [5]): 100%

Further lines, with some results ahead:

- Tmax [6]: 1.5 h
- half-life [7]: 4.9 h
- AUC(0-inf) [8]: 25700 ng·h/mL
- bioavailability [9]: 49%
- half-life [10]: 4.2 h
- Cmax [11]: 2700 ng/mL
- Vd [12]: 2.9 L/kg
- AUC(0-inf) [13]: 13100 ng·h/mL
- clearance [14]: 6.67 mL/min/kg
SMILES: Cc1cc2ccnc(Nc3ccc(Oc4ccnc(N)c4I)c(F)c3)c2c(=O)n1-c1ccc(F)cc1

- IC50 [4]: > 1000 nM
SMILES: Cc1cc2ccnc(Nc3ccc(Oc4ccnc(N)c4Cl)c(F)c3)c2c(=O)n1-c1ccc(OC(F)(F)F)cc1

- Tmax [6]: 2.3 h
- half-life [7]: 11 h
- AUC(0-inf) [8]: 21200 ng·h/mL
- bioavailability [9]: 51%
- half-life [10]: 7 h
- Cmax [11]: 3700 ng/mL
- Vd [12]: 2.4 L/kg
- AUC [13]: 10500 ng·h/mL
- CL [14]: 103 mL/min/kg
SMILES: Cc1cc2ccnc(Nc3ccc(Oc4ccnc(N)c4Cl)c(F)c3)c2c(=O)n1-c1ccc(F)cc1
- inhibition in vivo at 40 mg/kg (U-87 MG [44]): 72%
- inhibition (U-87 MG [39]): Dose-dependent effect
- minimal effective dose (U-87 MG [39]): 32.5 mg/kg
- inhibition in vivo at 25 mg/kg (U-87 MG [5]): 44%
